Experiment [1] concerns IKZF2. Kind of experiment: Cellular degradation assay, eGFP-IKZF2Δ fusion with mCherry reporter in Flp-In 293 cells. Format: cell-based. Particulars: for IKZF2 GFP/RFP Relative Abundance: 5 h incubation, n=1; for DC50: half degradation at 5 h (DC50,5 h), triplicate, 11 point dose response; for potency of IKZF2 degradation, in words: Table 3 summary. The gist of the method:
(§1)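 DC50,5 h derived by variable-slope nonlinear fit of the per-well ratio of GFP-positive to mCherry-positive cells, imaged after 5 h compound exposure at 0.5% DMSO.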

The target of experiment [2] is T1, CRBN and Helios (IKZF2) (Homo sapiens, UniProt Q96SW2+Q9UKS7).
T1 construct: His (N); Strep (N)
T1 sequence (Q96SW2 whole entry): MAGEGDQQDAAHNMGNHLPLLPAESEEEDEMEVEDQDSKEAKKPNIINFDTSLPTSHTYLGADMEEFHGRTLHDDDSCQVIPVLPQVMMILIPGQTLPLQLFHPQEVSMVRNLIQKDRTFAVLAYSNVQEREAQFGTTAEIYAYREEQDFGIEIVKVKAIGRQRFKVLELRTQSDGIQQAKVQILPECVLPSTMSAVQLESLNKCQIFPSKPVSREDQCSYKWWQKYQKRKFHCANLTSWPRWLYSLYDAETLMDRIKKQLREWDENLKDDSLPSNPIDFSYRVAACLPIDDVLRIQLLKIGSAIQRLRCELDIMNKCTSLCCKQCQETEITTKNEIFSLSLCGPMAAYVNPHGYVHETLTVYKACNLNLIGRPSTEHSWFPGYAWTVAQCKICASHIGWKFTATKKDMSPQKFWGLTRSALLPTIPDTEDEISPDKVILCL
T1 sequence (Q9UKS7 whole entry): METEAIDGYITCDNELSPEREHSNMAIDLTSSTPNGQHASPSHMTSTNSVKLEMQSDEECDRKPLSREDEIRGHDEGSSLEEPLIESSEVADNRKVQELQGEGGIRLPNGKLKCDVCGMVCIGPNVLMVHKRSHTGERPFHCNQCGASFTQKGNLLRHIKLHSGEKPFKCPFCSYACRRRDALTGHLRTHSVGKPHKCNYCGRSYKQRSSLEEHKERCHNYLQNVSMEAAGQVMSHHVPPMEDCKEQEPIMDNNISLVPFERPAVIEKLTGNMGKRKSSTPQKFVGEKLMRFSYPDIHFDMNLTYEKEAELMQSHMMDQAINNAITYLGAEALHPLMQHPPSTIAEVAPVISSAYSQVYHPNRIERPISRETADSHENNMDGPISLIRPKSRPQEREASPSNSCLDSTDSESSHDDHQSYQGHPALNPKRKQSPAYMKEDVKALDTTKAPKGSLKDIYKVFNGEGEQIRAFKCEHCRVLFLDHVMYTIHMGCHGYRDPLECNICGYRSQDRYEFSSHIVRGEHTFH
Description: TR-FRET dimerization assay (CRBN-IKZF2 ternary complex formation). Format: binding. Particulars: n=1. The method, boiled down:
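Compound-induced IKZF2 recruitment to CRBN was read as the 520/490 nm TR-FRET ratio after 15 min at rt. The mix held biotinylated IKZF2, BODIPY-labeled CRBN bound to DDB1 lacking the BPB propeller, tracer Tb-streptavidin and compound titrations; n=1, from ≥3 technical replicates per well.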

The target in experiment [3] is T2, IKZF1 (Homo sapiens, UniProt Q13422).
T2 construct: expressed in transfected cells; host or cells: Flp-In 293
T2 sequence (Q13422 83-213 isoform Q13422-7 limits assumed): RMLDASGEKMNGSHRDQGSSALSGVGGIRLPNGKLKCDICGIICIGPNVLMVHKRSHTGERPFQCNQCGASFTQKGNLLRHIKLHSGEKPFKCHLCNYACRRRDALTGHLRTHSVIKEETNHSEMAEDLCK
T2 sequence (Q96SW2 whole entry partner): as the sequence (Q96SW2 whole entry) above
T2 sequence (Q16531 2-1140 partner limits assumed): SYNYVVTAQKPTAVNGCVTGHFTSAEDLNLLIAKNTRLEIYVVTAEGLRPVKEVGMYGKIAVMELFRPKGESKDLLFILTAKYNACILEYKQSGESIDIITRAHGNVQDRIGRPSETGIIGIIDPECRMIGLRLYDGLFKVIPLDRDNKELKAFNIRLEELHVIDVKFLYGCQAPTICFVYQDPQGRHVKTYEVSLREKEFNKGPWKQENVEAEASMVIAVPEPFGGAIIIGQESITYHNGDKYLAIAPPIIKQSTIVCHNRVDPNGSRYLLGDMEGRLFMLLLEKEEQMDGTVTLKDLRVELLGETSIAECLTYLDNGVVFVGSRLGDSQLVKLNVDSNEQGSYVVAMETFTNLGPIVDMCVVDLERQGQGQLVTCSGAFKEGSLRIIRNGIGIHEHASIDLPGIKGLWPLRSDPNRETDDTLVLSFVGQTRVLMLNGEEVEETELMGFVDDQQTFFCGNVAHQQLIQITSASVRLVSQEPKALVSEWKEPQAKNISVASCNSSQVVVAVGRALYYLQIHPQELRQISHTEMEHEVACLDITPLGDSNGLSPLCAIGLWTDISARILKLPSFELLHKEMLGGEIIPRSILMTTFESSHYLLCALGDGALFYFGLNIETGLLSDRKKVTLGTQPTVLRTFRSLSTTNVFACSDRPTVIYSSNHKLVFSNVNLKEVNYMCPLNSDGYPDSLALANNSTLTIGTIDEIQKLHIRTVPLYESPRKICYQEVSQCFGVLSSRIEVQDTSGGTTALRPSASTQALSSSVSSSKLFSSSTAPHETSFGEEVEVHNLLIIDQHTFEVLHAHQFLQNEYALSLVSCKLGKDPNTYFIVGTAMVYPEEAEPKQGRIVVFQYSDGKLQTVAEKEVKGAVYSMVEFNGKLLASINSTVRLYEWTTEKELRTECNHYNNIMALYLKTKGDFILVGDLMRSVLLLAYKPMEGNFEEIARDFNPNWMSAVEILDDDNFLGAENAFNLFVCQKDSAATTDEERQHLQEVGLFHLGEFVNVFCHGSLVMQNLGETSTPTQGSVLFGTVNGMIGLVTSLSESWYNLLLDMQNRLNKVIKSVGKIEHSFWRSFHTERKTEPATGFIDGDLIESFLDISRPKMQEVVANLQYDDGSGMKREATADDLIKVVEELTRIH
Description: Cellular degradation assay, eGFP-IKZF1Δ fusion with mCherry reporter in Flp-In 293 cells. It counts as cell-based. The note with it: for IKZF1 GFP/RFP Relative Abundance: 5 h incubation, n=1; for DC50: half degradation at 5 h (DC50,5 h), triplicate, 11 point dose response. The gist of the method: as §1

Experiment [4] addresses GSPT1 (Homo sapiens, UniProt P15170+Q96SW2). Description: Cellular degradation assay, eGFP-GSPT1 fusion with mCherry reporter in Flp-In 293 cells. It counts as cell-based. Set-up: expressed in transfected cells; host or cells: Flp-In 293. The note with it: for GSPT1 GFP/RFP Relative Abundance: 5 h incubation, n=1; for DC50: half degradation at 5 h (DC50,5 h), triplicate, 11 point dose response. As to the method: IKZF1Δ, IKZF2Δ, GSPT1 and SALL4 ZnF1-2 were subcloned into mammalian pcDNA5/FRT Vector (Ampicillin and Hygromycin B resistant) modified to contain MCS-eGFP-P2A-mCherry. […] Following 2-3 passage cycle, FACS (FACSAria™ II, BD) was used to enrich for cells expressing eGFP and mCherry. Cells stably expressing the IKZF1Δ, IKZF2Δ, GSPT1 or SALL4 Znf1-2 GFP fusions with mCherry reporter were seeded at 30-50% confluency in 384-well plates with 50 μL FluoroBrite™ DMEM media (Thermo Fisher Scientific, A18967) containing 10% FBS per well a day before compound treatment. Compound titrations were dispensed using a D300e Digital Dispenser (HP), normalized to 0.5% DMSO, and incubated with cells for 5 hours.
The resulting images were analyzed using CellProfiler™. A series of image analysis steps (‘image analysis pipeline’) was constructed. First, the red and green channels were aligned and cropped to target the middle of each well (to avoid analysis of heavily clumped cells at the edges), and a background illumination function was calculated for both red and green channels of each well individually and subtracted to correct for illumination variations across the 384-well plate from various sources of error. An additional step was then applied to the green channel to suppress the analysis of large auto fluorescent artifacts and enhance the analysis of cell specific fluorescence by way of selecting for objects under a given size, 30 A.U., and with a given shape, speckles. mCherry-positive cells were then identified in the red channel filtering for objects between 8-60 pixels in diameter and using intensity to distinguish between clumped objects. The green channel was then segmented into GFP positive and negative areas and objects were labeled as GFP positive if at least 40% of it overlapped with a GFP positive area. The fraction of GFP-positive cells/mCherry-positive cells in each well was then calculated, and the green and red images were rescaled for visualization.
The degradation assay was performed as described above. […] Degradation was measured after 5 h of compound treatment and the concentrations that lead to half degradation at 5 h (DC50,5 h) were calculated using the nonlinear fit variable slope model (GraphPad Software).

Where [5] appears, read: compound concentration 2.00E−05.
The mark [6] stands for this setting: compound concentration 2.00E−06.
Where [7] appears, read: compound concentration 2.00E−07.
Setting [8] is: compound concentration 6.6667E−05.
[9] abbreviates: compound concentration 6.6667E−06.
Setting [10] is: compound concentration 6.6667E−07 (667 nM).

The structures appear in SMILES notation. Some results are limits rather than exact numbers.

Chain of GSPT1 (P15170 whole entry, the tested form may be a part): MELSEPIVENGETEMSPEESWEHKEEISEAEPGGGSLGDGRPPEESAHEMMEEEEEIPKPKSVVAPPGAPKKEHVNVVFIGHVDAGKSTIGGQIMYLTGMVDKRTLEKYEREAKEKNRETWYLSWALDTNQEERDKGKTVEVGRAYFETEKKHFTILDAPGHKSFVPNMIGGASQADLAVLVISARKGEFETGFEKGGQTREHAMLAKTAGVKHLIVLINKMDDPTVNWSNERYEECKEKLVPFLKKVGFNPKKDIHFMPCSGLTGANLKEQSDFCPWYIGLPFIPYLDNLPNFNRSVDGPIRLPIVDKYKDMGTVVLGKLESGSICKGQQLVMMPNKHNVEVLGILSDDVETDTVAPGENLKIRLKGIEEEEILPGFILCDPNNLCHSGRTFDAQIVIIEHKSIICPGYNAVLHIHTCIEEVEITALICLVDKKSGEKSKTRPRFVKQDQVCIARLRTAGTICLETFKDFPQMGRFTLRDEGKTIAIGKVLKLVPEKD
Chain of GSPT1 (Q96SW2 whole entry, the tested form may be a part): as the sequence (Q96SW2 whole entry) above
Chain of GSPT1 (Q16531 whole entry partner, the tested form may be a part): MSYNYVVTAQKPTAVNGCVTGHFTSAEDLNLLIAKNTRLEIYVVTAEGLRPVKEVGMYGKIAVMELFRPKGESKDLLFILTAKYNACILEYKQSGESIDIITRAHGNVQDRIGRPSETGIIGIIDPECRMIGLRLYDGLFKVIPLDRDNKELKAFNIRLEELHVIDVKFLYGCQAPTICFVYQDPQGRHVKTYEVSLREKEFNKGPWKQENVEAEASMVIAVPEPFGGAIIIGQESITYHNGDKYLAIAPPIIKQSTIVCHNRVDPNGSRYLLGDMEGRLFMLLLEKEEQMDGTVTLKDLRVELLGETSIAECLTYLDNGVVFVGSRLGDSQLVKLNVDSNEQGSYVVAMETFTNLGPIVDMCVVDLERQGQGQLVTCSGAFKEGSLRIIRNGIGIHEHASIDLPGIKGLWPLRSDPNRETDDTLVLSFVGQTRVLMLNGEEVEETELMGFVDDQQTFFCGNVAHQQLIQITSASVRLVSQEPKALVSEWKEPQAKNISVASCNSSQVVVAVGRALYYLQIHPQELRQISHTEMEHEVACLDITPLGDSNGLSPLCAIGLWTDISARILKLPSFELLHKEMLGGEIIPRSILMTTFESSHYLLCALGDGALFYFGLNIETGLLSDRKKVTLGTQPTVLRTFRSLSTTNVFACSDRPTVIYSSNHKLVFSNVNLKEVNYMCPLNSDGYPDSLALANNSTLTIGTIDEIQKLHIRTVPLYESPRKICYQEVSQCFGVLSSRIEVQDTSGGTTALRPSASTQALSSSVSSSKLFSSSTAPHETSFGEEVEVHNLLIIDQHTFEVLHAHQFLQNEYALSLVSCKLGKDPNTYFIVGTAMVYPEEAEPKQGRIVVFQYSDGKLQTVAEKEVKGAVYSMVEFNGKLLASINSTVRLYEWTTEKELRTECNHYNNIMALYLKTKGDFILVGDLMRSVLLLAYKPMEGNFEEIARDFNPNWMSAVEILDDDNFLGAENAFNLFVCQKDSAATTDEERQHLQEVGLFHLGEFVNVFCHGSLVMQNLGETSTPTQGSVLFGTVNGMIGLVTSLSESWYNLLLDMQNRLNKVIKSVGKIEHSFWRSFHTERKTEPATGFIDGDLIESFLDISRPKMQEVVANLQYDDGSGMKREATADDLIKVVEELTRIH

Consider `O=C1CCC(N2C(=O)C=C(Nc3cccc(CNC(=O)Nc4ccc(Cl)c(Cl)c4)c3)C2=O)C(=O)N1` (stereo not drawn) [Compound 59, 1-(3,4-dichlorophenyl)-3-(3-((1-(2,6-dioxopiperidin-3-yl)-2,5-dioxo-2,5-dihydro-1H-pyrrol-3-yl)amino)benzyl)urea], for which the “IKZF2 GFP/RFP Relative Abundance” value was found to be 0.099 in experiment [1] (setting [5]), 0.072 in experiment [1] (setting [6]) and 0.108 in experiment [1] (setting [7]). Besides, the “TR-FRET-IKZF2 (Normalized to CC-885)” value in experiment [2] (setting [8]) was determined as 1.224; in experiment [2] (setting [9]), 1.165; in experiment [2] (setting [10]) it was 1.035. Further, the “IKZF1 GFP/RFP Relative Abundance” value turned out to be 0.144 in experiment [3] (setting [5]), 0.097 in experiment [3] (setting [6]) and 0.066 in experiment [3] (setting [7]). Further, the “GSPT1 GFP/RFP Relative Abundance” value in experiment [4] (setting [5]) was determined as 0.247; in experiment [4] (setting [6]), 0.734; in experiment [4] (setting [7]) it was 0.952.
On to `Cc1ccc(CC(=O)NCc2cccc(NC3=CC(=O)N(C4CCC(=O)NC4=O)C3=O)c2)cc1C` (stereo not drawn) [Compound 60, 2-(3,4-dimethylphenyl)-N-(3-((1-(2,6-dioxopiperidin-3-yl)-2,5-dioxo-2,5-dihydro-1H-pyrrol-3-yl)amino)benzyl)acetamide], for which the “IKZF2 GFP/RFP Relative Abundance” value in experiment [1] (setting [5]) is on record as 0.087; in experiment [1] (setting [6]) it was 0.151; in experiment [1] (setting [7]), 0.185. In addition, the “TR-FRET-IKZF2 (Normalized to CC-885)” value was found to be 1.082 in experiment [2] (setting [8]), 0.945 in experiment [2] (setting [9]) and 0.833 in experiment [2] (setting [10]). Moreover, the results for the “IKZF1 GFP/RFP Relative Abundance” value in experiment [3] (setting [5]), in experiment [3] (setting [6]) and in experiment [3] (setting [7]) were 0.132, 0.078 and 0.091, respectively. In addition, the results for the “GSPT1 GFP/RFP Relative Abundance” value in experiment [4] (setting [5]), in experiment [4] (setting [6]) and in experiment [4] (setting [7]) were 0.387, 0.558 and 0.528, respectively.
`O=C(Cc1ccc(Cl)c(Cl)c1)NCc1cccc(NC2=CC(=O)N(C3CCC(=O)NC3=O)C2=O)c1` (stereo not drawn) [Compound 61, 2-(3,4-dichlorophenyl)-N-(3-((1-(2,6-dioxopiperidin-3-yl)-2,5-dioxo-2,5-dihydro-1H-pyrrol-3-yl)amino)benzyl)acetamide]: the results for the “IKZF2 GFP/RFP Relative Abundance” value in experiment [1] (setting [5]), in experiment [1] (setting [6]) and in experiment [1] (setting [7]) were 0.044, 0.045 and 0.050, respectively. The figures for the “TR-FRET-IKZF2 (Normalized to CC-885)” value in experiment [2] (setting [8]), in experiment [2] (setting [9]) and in experiment [2] (setting [10]) were 1.465, 1.248 and 1.201, respectively. The “IKZF1 GFP/RFP Relative Abundance” value in experiment [3] (setting [5]) is 0.111; in experiment [3] (setting [6]), 0.104; in experiment [3] (setting [7]), 0.103. Besides, the “GSPT1 GFP/RFP Relative Abundance” value in experiment [4] (setting [5]) worked out at 0.190; in experiment [4] (setting [6]) it was 0.466; in experiment [4] (setting [7]) it was 0.737.
Turning to `Cc1ccc(NC(=O)NCCc2cccc(NC3=CC(=O)N(C4CCC(=O)NC4=O)C3=O)c2)cc1Cl` (stereo not drawn) [Compound 62, 1-(3-chloro-4-methylphenyl)-3-(3-((1-(2,6-dioxopiperidin-3-yl)-2,5-dioxo-2,5-dihydro-1H-pyrrol-3-yl)amino)phenethyl)urea], the “IKZF2 GFP/RFP Relative Abundance” value in experiment [1] (setting [5]) is 0.040; in experiment [1] (setting [6]), 0.015; in experiment [1] (setting [7]), 0.036. Besides, the figures for the DC50 in experiment [1], in experiment [3] and in experiment [4] were 29 nM, 26 nM and more than 1000 nM, respectively. The “TR-FRET-IKZF2 (Normalized to CC-885)” value in experiment [2] (setting [8]) turned out to be 1.642; in experiment [2] (setting [9]), 1.563; in experiment [2] (setting [10]), 1.483. Further, the “IKZF1 GFP/RFP Relative Abundance” value is 0.133 in experiment [3] (setting [5]), 0.098 in experiment [3] (setting [6]) and 0.109 in experiment [3] (setting [7]). The “GSPT1 GFP/RFP Relative Abundance” value in experiment [4] (setting [5]) was 0.353; in experiment [4] (setting [6]) it was 1.021; in experiment [4] (setting [7]) it was 1.208.
Regarding `Cc1ccc(NCc2cccc(NC3=CC(=O)N(C4CCC(=O)NC4=O)C3=O)c2)cc1Cl` (stereo not drawn) [Compound 63, 3-(3-((3-(((3-chloro-4-methylphenyl)amino)methyl)-phenyl)amino)-2,5-dioxo-2,5-dihydro-1H-pyrrol-1-yl)piperidine-2,6-dione], the figures for the “IKZF2 GFP/RFP Relative Abundance” value in experiment [1] (setting [5]), in experiment [1] (setting [6]) and in experiment [1] (setting [7]) were 0.428, 0.339 and 0.470, respectively. Moreover, the “TR-FRET-IKZF2 (Normalized to CC-885)” value in experiment [2] (setting [8]) amounted to 0.703; in experiment [2] (setting [9]), 0.649; in experiment [2] (setting [10]), 0.625. Also, the “IKZF1 GFP/RFP Relative Abundance” value in experiment [3] (setting [5]) is listed as 0.081; in experiment [3] (setting [6]), 0.068; in experiment [3] (setting [7]) it was 0.086. The entries for the “GSPT1 GFP/RFP Relative Abundance” value in experiment [4] (setting [5]), in experiment [4] (setting [6]) and in experiment [4] (setting [7]) were 0.274, 0.722 and 0.844, respectively.
Turning to `Cc1ccc(NC(=O)N[C@@H](C)c2cccc(NC3=CC(=O)N(C4CCC(=O)NC4=O)C3=O)c2)cc1Cl` (stereo partly drawn) [Compound 71, 1-(3-chloro-4-methylphenyl)-3-((1S)-1-(3-((1-(2,6-dioxopiperidin-3-yl)-2,5-dioxo-2,5-dihydro-1H-pyrrol-3-yl)amino)phenyl)ethyl)urea], the “potency of IKZF2 degradation, in words” value in experiment [1] is “most potent against IKZF2”. For the same compound, the “IKZF2 GFP/RFP Relative Abundance” value in experiment [1] (setting [5]) turned out to be 0.016; in experiment [1] (setting [6]), 0.018; in experiment [1] (setting [7]), 0.019. Further, the DC50 in experiment [1] was 1.9 nM; in experiment [3], 2.1 nM; in experiment [4], more than 1000 nM. Also, the “TR-FRET-IKZF2 (Normalized to CC-885)” value in experiment [2] (setting [8]) was 1.811; in experiment [2] (setting [9]), 1.675; in experiment [2] (setting [10]), 1.657. Further, the results for the “IKZF1 GFP/RFP Relative Abundance” value in experiment [3] (setting [5]), in experiment [3] (setting [6]) and in experiment [3] (setting [7]) were 0.088, 0.086 and 0.076, respectively.
In the case of `CCC(NC(=O)Nc1ccc(C)c(Cl)c1)c1cccc(NC2=CC(=O)N(C3CCC(=O)NC3=O)C2=O)c1` (stereo not drawn) [Compound 74, 1-(3-chloro-4-methylphenyl)-3-(1-(3-((1-(2,6-dioxopiperidin-3-yl)-2,5-dioxo-2,5-dihydro-1H-pyrrol-3-yl)amino)phenyl)propyl)urea], the “potency of IKZF2 degradation, in words” value in experiment [1] was “most potent against IKZF2”. For the same compound, the figures for the “IKZF2 GFP/RFP Relative Abundance” value in experiment [1] (setting [5]), in experiment [1] (setting [6]) and in experiment [1] (setting [7]) were 0.021, 0.033 and 0.032, respectively. The “degradation selectivity IKZF2/IKZF1” value in experiment [1] (from DC50 values of Table 3) was approximately 4 fold. Also, the DC50 in experiment [1] is 1.9 nM; in experiment [3], 7.8 nM; in experiment [4] it was more than 1000 nM. The results for the “TR-FRET-IKZF2 (Normalized to CC-885)” value in experiment [2] (setting [8]), in experiment [2] (setting [9]) and in experiment [2] (setting [10]) were 2.010, 1.914 and 1.817, respectively. Further, the “IKZF1 GFP/RFP Relative Abundance” value in experiment [3] (setting [5]) came to 0.096; in experiment [3] (setting [6]), 0.090; in experiment [3] (setting [7]) it was 0.114.
